# According to patent publication US8293736B2, “Purine compounds selective for PI3K P110 delta, and methods of use” (F. Hoffmann la Roche AG, priority 2010, dated 2012):
# Tests used:
# [1] = test system: production of CD69 by B lymphocytes in human whole blood; experiment: CD69 Whole Blood Assay; assay type: cell-based; details: Lymphocyte; human whole blood activated with goat F(ab')2 anti-human IgM, 20 hours
# Source text: There is good evidence that B-cells play a key role in the pathogenesis of autoimmune and/or inflammatory disease. Protein-based therapeutics that deplete B cells such as Rituxan are effective against autoantibody-driven inflammatory diseases such as rheumatoid arthritis (Rastetter et al. (2004) Annu Rev Med 55:477). CD69 is the early activation marker in leukocytes including T cells, thymocytes, B cells, NK cells, neutrophils, and eosinophils. The CD69 human whole blood assay (Example 903) determines the ability of compounds to inhibit the production of CD69 by B lymphocytes in human whole blood activated by crosslinking surface IgM with goat F(ab′)2 anti-human IgM.
# Human blood is obtained from healthy volunteers, with the following restrictions: 1 week drug-free, non-smokers. Blood (approximately 20 mls to test 8 compounds) is collected by venipuncture into Vacutainer tubes with sodium heparin.
# Solutions of Formula I compounds at 1000 or 2000 μM in PBS (20×), are diluted by three-fold serial dilutions in 10% DMSO in PBS for a nine point dose-response curve. An aliquot of 5.5 μl of each compound is added in duplicate to a 2 ml 96-well plate; 5.5 μl of 10% DMSO in PBS is added as control and no-stimulus wells. Human whole blood—HWB (100 μl) is added to each well. After mixing the plates are incubated at 37° C., 5% CO2, 100% humidity for 30 minutes. Goat F(ab′)2 anti-human IgM (10 μl of a 500 μg/ml solution, 50 μg/ml final) is added to each well (except the no-stimulus wells) with mixing and the plates are incubated for an additional 20 hours. At the end of the 20 hour incubation, samples are incubated with fluorescent labeled antibodies for 30 minutes, at 37° C., 5% CO2, 100% humidity. Include induced control, unstained and single stains for compensation adjustments and initial voltage settings. Samples are then lysed with Pharmingen Lyse™ according to the manufacturer's instructions. Samples are then transferred to a 96 well plate suitable to be run on the AMS 96 well system on the BD Calibur FACS cell sorter instrument. Data acquired and Mean Fluorescence Intensity values were obtained using Cell Quest Software. Results are initially analyzed by FACS analysis software (Flow Jo). The IC50 values are calculated by ActivityBase™ using Xlfit™ version 3, equation 201.
# [2] = target: T1, p110 alpha (Homo sapiens, UniProt P42336); experiment: PI3K isoform inhibition assay (fluorescence polarization), p110 alpha; assay type: biochemical; details: delta/alpha selectivity ratio
# T1 construct: purchased Upstate Group, Millipore; Dundee, UK
# T1 sequence (P42336 whole entry, species assumed, canonical isoform): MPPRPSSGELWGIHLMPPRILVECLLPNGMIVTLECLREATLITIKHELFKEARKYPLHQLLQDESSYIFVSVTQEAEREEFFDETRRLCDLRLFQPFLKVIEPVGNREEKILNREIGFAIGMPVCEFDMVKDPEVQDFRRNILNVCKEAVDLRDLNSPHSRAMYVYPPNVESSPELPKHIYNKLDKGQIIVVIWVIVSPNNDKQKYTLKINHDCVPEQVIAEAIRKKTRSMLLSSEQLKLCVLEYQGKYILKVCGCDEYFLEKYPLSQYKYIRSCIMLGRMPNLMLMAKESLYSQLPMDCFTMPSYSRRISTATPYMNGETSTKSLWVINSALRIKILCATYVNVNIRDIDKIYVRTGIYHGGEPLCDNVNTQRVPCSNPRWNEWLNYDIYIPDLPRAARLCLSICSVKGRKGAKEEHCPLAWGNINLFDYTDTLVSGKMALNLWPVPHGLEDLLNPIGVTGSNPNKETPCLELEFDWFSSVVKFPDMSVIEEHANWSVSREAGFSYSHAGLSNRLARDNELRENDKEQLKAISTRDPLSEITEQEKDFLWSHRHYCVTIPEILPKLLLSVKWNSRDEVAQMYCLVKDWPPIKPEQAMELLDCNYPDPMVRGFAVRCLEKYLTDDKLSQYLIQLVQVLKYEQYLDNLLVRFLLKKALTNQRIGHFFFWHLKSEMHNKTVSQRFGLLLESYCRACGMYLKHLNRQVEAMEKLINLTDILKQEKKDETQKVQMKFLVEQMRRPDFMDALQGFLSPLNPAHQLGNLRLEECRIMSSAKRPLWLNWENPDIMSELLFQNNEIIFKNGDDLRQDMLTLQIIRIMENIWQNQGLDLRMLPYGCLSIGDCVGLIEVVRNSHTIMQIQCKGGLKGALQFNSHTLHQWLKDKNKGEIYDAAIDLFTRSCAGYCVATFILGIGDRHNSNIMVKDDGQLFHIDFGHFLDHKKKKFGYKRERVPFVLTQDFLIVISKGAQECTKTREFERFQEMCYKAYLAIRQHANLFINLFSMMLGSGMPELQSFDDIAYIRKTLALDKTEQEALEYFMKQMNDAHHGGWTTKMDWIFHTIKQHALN
# T1 sequence (P27986 whole entry partner, species assumed, canonical isoform): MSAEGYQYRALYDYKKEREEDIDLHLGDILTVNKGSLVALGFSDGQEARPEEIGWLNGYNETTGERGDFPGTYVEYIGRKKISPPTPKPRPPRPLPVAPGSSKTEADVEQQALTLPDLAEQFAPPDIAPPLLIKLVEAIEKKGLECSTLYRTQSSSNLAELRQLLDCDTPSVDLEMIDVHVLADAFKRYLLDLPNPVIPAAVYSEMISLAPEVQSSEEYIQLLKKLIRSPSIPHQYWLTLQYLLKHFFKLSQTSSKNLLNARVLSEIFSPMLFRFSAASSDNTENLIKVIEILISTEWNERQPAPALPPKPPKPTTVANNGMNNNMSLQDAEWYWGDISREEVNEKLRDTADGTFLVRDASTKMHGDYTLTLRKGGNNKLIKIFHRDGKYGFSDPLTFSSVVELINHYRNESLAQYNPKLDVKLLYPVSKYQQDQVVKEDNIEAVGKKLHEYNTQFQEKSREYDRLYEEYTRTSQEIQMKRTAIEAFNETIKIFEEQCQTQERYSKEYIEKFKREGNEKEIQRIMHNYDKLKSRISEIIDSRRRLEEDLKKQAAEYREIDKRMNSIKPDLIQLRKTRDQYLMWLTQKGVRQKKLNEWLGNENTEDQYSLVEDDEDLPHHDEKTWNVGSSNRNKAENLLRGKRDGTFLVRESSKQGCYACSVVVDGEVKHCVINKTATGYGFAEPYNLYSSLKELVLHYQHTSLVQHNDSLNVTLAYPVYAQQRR
# Protocol: (§1) Determination of the activity of PI3 kinase activity of Formula I compounds is possible by a number of direct and indirect detection methods.
# (§2) PI3K enzymatic activity was assayed by measuring the amount of product phosphatidylinositol 3,4,5-phosphate (PIP3) formed from substrate 4,5 phosphatidylinositol 4,5-phosphate (PIP2) using a fluorescence polarization displacement assay. The decrease in fluorescence polarization of a fluorescent PIP3 probe is measured as it is displaced from a PIP3-binding protein GRP-1 detector by PI3K-catalyzed product. […] The kinase reactions were initiated by the addition of 40 ng/mL p110α/p85α, 300 ng/mL p110β/p85α, 40 ng/mL p110γ, or 40 ng/mL p110δ/p85α (Upstate Group, Millipore; Dundee, UK), and 10 μM PIP2 (Echelon Biosciences) to the wells. […] After 60 minutes of incubation at room temperature to allow equilibration of labeled and unlabeled PIP3 binding, the parallel and perpendicular components of the fluorescence emissions from each sample were measured at an excitation wavelength of 530 nm and an emission wavelength of 590 nm using an Envision fluorescent plate reader with a rhodamine filter (PerkinElmer Life and Analytical Sciences; Wellesley, Mass.). The assay is capable of detecting 0.1-2.0 μM PIP3 product. The Ki apparent values were obtained by fitting the dose-dependent inhibition data to the Morrison equation for tight-binding, competitive inhibitors. Reference: R. A. Copeland, Enzymes. “A Practical Introduction to Structure, Mechanism and Data Analysis”.
# The same protocol may be used to establish Ki values for p110α (alpha) PI3K binding.
# The four Class I PI 3-kinases are cloned into baculovirus vectors as follows: […]
# [3] = target: T2, p110 delta (Homo sapiens, UniProt O00329); experiment: PI3K isoform inhibition assay (fluorescence polarization), p110 delta; assay type: biochemical; details: Ki apparent, Morrison equation; 25 μM ATP, 10 μM PIP2
# T2 construct: purchased Upstate Group, Millipore; Dundee, UK
# T2 sequence (O00329 whole entry, canonical isoform): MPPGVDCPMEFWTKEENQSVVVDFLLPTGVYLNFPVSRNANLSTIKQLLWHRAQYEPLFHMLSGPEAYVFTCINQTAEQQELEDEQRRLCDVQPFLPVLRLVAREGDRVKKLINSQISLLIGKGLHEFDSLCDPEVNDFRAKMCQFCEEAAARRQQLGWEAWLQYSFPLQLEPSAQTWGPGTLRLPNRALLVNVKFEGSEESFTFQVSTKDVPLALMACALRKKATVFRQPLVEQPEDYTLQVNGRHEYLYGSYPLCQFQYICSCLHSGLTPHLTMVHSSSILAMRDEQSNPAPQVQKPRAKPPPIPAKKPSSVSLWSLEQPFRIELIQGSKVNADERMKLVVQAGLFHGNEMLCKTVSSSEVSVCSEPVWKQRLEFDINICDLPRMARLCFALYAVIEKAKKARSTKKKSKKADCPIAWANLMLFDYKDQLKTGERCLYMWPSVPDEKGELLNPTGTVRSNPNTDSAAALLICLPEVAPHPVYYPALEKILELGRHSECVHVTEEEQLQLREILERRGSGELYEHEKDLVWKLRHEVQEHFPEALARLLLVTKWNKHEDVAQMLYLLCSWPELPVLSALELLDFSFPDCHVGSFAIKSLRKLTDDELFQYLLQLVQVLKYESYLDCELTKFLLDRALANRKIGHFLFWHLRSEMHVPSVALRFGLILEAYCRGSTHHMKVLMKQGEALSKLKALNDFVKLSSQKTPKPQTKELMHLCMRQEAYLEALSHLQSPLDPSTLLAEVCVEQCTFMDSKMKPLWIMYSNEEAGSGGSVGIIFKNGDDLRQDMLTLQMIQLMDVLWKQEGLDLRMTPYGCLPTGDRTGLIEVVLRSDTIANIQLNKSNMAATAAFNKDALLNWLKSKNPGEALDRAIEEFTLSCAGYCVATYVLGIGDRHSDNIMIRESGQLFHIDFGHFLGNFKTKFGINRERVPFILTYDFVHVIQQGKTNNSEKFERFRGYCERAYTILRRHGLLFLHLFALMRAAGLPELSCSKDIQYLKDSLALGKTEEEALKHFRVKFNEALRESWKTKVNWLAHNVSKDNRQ
# T2 sequence (P27986 whole entry partner, canonical isoform): as the sequence (P27986 whole entry partner, species assumed, canonical isoform) above
# Protocol: as §1, §2
# The Formula I compound was serially diluted in 100% DMSO. The kinase reaction was incubated for 1 h at room temperature, and the reaction was terminated by the addition of PBS. IC50 values were subsequently determined using sigmoidal dose-response curve fit (variable slope). […]
IC50 [1],Ki p110 alpha/ Ki p110 delta [2],Ki [3],Structure (SMILES)
35.4 nM,78,1.84 nM,"CCc1nc2ccccc2n1-c1nc(N2CCOCC2)c2nc(OC3CCN(C4CCOCC4)CC3)n(C)c2n1 [Compound 101, 4-(2-(2-ethyl-1H-benzo[d]imidazol-1-yl)-9-methyl-8-(1-(tetrahydro-2H-pyran-4-yl)piperidin-4-yloxy)-9H-purin-6-yl)morpholine]"
28.1 nM,93,2.03 nM,"CC(C)c1nc2ccccc2n1-c1nc(N2CCOCC2)c2nc(OC3CN(CC(C)(C)O)C3)n(C)c2n1 [Compound 105, 1-(3-(2-(2-isopropyl-1H-benzo[d]imidazol-1-yl)-9-methyl-6-morpholino-9H-purin-8-yloxy)azetidin-1-yl)-2-methylpropan-2-ol]"
8.3 nM,173,0.38 nM,"CC(C)C(=O)N1CC(Oc2nc3c(N4CCOCC4)nc(-n4c(C(C)C)nc5ccccc54)nc3n2C)C1 [Compound 107, 1-(3-(2-(2-isopropyl-1H-benzo[d]imidazol-1-yl)-9-methyl-6-morpholino-9H-purin-8-yloxy)azetidin-1-yl)-2-methylpropan-1-one]"
15.9 nM,141,0.629 nM,"CCc1nc2ccccc2n1-c1nc(N2CCOCC2)c2nc(OC3CN(C(=O)C(C)C)C3)[nH]c2n1 [Compound 128, 1-(3-(2-(2-ethyl-1H-benzo[d]imidazol-1-yl)-6-morpholino-9H-purin-8-yloxy)azetidin-1-yl)-2-methylpropan-1-one]"
14.6 nM,180,3.65 nM,"CC(C)C(=O)N1CC(Oc2nc3c(N4CCOCC4)nc(-n4c(N(C)C)nc5ccccc54)nc3n2C)C1 [Compound 131, 1-(3-(2-(2-(dimethylamino)-1H-benzo[d]imidazol-1-yl)-9-methyl-6-morpholino-9H-purin-8-yloxy)azetidin-1-yl)-2-methylpropan-1-one]"
10.8 nM,27,8.53 nM,"CCc1nc2ccccc2n1-c1nc(N2CCOCC2)c2nc(OC3CNC3)n(C)c2n1 [Compound 133, 4-(8-(azetidin-3-yloxy)-2-(2-ethyl-1H-benzo[d]imidazol-1-yl)-9-methyl-9H-purin-6-yl)morpholine]"

Structure (SMILES),IC50 [1],Ki p110 alpha/ Ki p110 delta [2],Ki [3]
"CC(C)c1nc2ccccc2n1-c1nc(N2CCOCC2)c2nc(OC3CN(C4CCS(=O)(=O)CC4)C3)n(C)c2n1 [Compound 103, 4-(2-(2-isopropyl-1H-benzo[d]imidazol-1-yl)-9-methyl-8-(1-(1,1-dioxo-tetrahydro-2H-thiopyran-4-yl)azetidin-3-yloxy)-9H-purin-6-yl)morpholine]",3 nM,256,0.464 nM
